Test results from publication PMC10179080, “In Vivo and In Vitro Characterization of Close Analogs of Compound KA-11, a New Antiseizure Drug Candidate” (International Journal of Molecular Sciences, 2023).

How the values were obtained:
[1] = tested on: PTZ-induced clonic seizures in mice; experiment: scPTZ-induced convulsions; assay type: in vivo; conditions: i.p.
Protocol: (§1) The experiments were conducted on adult male albino Swiss mice weighing 22–26 g. The animals were kept in colony cages under standardized laboratory conditions: natural light–dark cycle 12/12 h, temperature 20–24 °C, air humidity 45–65% and free access to tap water and food (chow pellets). After 7 days of adaptation to laboratory conditions, the animals were randomly assigned to experimental groups consisting of 8 mice. The experimental procedures described herein were approved by the Local Ethics Committee in Lublin, Poland (approval numbers: 71/2020 and 13/2021), and were conducted in accordance with EU Directive 2010/63/EU for animal experiments. All efforts were made to minimize animal suffering and to use only the number of animals necessary to produce reliable scientific data according to the 3Rs rule.
All substances (except PTZ and tetracaine hydrochloride dissolved in water for injections) were suspended in a 1% solution of Tween 80 (Sigma-Aldrich, Saint Louis, MO, USA) in water for injections (Baxter, Warszawa, Poland) or 0.9% NaCl. All drugs were injected intraperitoneally (i.p.) 30 min before all seizure models with 1 mL syringes as a single injection, in a volume of 10 mL/kg. The pretreatment time (30 min) before testing for KA-228 and KA-232 was chosen based on the time to peak of maximum anticonvulsant activity of KA-11 from our previous studies.
The PTZ-induced clonic seizures in mice were determined after sc administration of PTZ at a dose of 100 mg/kg. The animals were administered with increasing doses of KA-228 and KA-232, and the anticonvulsant activity of each drug was evaluated as the ED50 value. This experimental procedure has been described in detail in our previous studies.
(§2) The ED50 or TD50 values for tested substances in the acute animal models of seizures were calculated using the computer log-probit analysis. Subsequently, the ED50 and TD50 values (±SEM) were statistically analyzed using one-way analysis of variance (ANOVA) followed by the post hoc Dunnett’s test for multiple comparisons. Differences among values were considered statistically significant if p < 0.05. GraphPad Prism version 8 for Windows (GraphPad Software, San Diego, CA, USA) was used as a statistical software program. The results obtained from the acute ivPTZ test and grip strength test were evaluated by a Student’s t test. Fisher’s exact probability test was used to analyze protection from tonic forelimb and hindlimb extension in the ivPTZ test.

[2] = tested on: seizure susceptibility in mice; experiment: Timed ivPTZ seizure threshold test; assay type: in vivo
Protocol: as §1
The timed ivPTZ seizure threshold test was carried out according to the method described by Socała et al.. KA-228 and KA-232 were suspended in a 1% solution of Tween 80 and administered i.p. 30 min before the test. In the experiment with KA-232, two separate control groups were used because the effects of KA-232 at a dose of 50 and 100 mg/kg were determined on different days.
as §2
Figure 7 Effects of KA-11, KA-228 and KA-232 on the threshold for the first myoclonic twitch (A), generalized clonus (B) and forelimb tonus (C) in the ivPTZ test in mice. KA-228 and KA-232 were administered i.p., 30 min before seizure induction. Control animals received vehicle. Data are presented as means ± SD (mg/kg PTZ; n = 9–14 animals; the n value varies between groups because some animals were excluded from the study due to unsuccessful catheterization of the vein). The statistical significance for KA-228 and KA-232 was evaluated by a Student’s t test. Data for KA-11 were used from Socała et al. and re-analyzed using one-way ANOVA followed by Dunnett’s post hoc test. * p < 0.05, ** p < 0.01, *** p < 0.001, **** p < 0.0001 vs. the vehicle-treated group (GraphPad Prism 8).

[3] = tested on: Calcium Cav1.2 channels (dihydropyridine site, antagonist radioligand); experiment: Radioligand binding, Cav1.2 dihydropyridine site; design: species or system rat
Protocol: (§3) Dysfunction of both sodium and calcium ion channels is known to be one of the crucial reasons behind the pathogenesis of seizures. Consequently, these ion channels are molecular targets for several clinically important ASDs such as lacosamide, lamotrigine, carbamazepine, oxcarbazepine and compounds currently under preclinical and clinical studies. Thus, for KA-228 and KA-232, we tested herein their binding profile toward the aforementioned ion channels at concentrations of 10 and 100 µM (Table 3). […] Apart from in vitro studies focused on explaining the mechanism of action, KA-232 was additionally tested for its interaction with the potassium channel (hERG) which is recognized as one of the most important ‘off-targets’ responsible for harmful arrhythmogenic activity. Thus, the interaction of potential drug candidates with hERG must be excluded at an early stage of development.
(§4) Binding studies were carried out commercially in Eurofins Laboratories (Poitiers, France or New Taipei City, Taiwan).

[4] = tested on: Calcium Cav1.2 channels (diltiazem site, antagonist radioligand); experiment: Radioligand binding, Cav1.2 diltiazem site; design: species or system rat
Protocol: as §3, §4

[5] = tested on: Calcium Cav1.2 channel (verapamil site, antagonist radioligand); experiment: Radioligand binding, Cav1.2 verapamil site; design: species or system rat; conditions: 10 µM
Protocol: as §3, §4

[6] = molecular target: T1, Calcium Cav2.2 channel (antagonist radioligand) (Rattus norvegicus, UniProt Q02294); experiment: Radioligand binding, Cav2.2 channel
T1 construct: rat cerebral cortex; tissue Eurofins Laboratories; host or cells: rat cerebral cortex
T1 sequence (Q02294 whole entry): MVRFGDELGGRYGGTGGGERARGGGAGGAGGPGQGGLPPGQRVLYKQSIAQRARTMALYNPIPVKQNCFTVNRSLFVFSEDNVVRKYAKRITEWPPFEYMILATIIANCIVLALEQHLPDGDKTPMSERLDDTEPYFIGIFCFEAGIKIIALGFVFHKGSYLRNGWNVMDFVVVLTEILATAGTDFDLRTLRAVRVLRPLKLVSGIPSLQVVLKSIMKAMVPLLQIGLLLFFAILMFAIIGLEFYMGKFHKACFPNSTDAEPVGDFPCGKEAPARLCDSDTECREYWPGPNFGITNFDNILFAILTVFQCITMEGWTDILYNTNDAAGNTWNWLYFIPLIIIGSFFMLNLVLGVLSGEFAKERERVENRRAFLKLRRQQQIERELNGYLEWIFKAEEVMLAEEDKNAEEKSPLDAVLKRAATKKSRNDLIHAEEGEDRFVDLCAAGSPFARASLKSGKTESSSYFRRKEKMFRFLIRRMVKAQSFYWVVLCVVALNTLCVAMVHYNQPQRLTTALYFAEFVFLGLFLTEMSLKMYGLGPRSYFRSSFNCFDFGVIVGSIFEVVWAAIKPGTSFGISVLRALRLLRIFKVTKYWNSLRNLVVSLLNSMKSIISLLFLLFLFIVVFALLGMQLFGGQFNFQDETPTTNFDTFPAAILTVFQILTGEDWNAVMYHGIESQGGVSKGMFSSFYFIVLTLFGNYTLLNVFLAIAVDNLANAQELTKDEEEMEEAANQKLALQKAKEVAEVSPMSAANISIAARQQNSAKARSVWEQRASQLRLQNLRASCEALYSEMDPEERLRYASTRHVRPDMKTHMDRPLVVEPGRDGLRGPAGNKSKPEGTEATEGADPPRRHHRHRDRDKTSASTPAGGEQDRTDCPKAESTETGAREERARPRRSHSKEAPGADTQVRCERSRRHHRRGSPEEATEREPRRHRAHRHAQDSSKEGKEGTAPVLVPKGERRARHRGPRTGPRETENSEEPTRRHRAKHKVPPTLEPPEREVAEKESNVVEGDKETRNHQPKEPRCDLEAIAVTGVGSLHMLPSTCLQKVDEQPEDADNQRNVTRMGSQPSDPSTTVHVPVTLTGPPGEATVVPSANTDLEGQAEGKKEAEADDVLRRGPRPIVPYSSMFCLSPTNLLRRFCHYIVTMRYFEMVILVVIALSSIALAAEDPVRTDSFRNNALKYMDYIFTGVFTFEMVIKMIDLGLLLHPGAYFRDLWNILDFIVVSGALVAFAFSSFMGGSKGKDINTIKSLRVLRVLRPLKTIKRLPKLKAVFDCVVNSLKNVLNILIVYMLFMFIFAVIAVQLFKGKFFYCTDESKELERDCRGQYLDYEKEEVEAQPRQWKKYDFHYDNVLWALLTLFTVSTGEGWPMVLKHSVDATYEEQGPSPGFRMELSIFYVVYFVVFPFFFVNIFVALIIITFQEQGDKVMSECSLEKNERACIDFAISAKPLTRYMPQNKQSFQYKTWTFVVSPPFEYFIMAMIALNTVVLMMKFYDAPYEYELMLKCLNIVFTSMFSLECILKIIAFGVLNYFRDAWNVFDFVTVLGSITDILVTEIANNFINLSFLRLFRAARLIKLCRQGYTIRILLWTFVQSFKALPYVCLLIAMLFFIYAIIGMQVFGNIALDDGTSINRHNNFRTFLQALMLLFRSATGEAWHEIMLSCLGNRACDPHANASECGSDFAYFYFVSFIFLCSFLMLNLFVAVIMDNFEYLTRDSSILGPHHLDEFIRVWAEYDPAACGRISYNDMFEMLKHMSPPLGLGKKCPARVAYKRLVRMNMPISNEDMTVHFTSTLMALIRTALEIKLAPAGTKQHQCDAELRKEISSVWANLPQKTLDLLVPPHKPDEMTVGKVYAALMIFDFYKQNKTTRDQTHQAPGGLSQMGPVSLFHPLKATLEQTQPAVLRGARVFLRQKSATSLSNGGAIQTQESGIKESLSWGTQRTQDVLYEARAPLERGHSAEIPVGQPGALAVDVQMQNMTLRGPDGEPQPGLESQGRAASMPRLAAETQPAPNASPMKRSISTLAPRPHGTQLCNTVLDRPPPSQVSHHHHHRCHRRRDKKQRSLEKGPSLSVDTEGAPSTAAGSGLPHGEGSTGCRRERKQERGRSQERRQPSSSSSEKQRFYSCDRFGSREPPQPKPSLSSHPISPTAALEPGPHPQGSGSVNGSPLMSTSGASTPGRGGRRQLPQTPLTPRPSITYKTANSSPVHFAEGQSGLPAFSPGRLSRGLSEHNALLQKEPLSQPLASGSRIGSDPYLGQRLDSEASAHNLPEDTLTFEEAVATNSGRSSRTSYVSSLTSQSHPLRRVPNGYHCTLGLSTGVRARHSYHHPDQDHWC
Protocol: as §3, §4

neuroblastoma SH-SY5Y = experiment: Neurotoxicity, SH-SY5Y cell viability; assay type: cell-based, human
Excerpt: The assays and protocols used for evaluating the KA-232 ADME-Tox parameters were similar to those described previously for compound KA-11 [6].
Figure 9 The effect of KA-232 and the reference drug ketoconazole (KE) on CYP3A4 activity (A). The effect of KA-232 and the reference drug quinidine (QD) on CYP2D6 activity (B). The effect of KA-232 and the reference cytostatic drug doxorubicin (DX) on the HepG2 cell line (C) and the SH-SY5Y cell line (D) viability. Statistical significance (* p < 0.05, **** p < 0.0001) was analyzed by Graph Pad Prism 8 software using one-way ANOVA and Bonferroni’s Multiple Comparison Post Test.

in vitro = conditions: PAMPA
Protocol: Pre-coated PAMPA Plate System Gentest™ was purchased from Corning (Tewksbury, MA, USA). […] The luminescent signal and the absorbances were measured by using a microplate reader EnSpire PerkinElmer (Waltham, MA, USA). The LC/MS/MS analyses used in PAMPA and metabolic stability assays were obtained on Waters ACQUITY™ TQD system (Waters, Milford, CT, USA).

[7] = 50 mg/kg i.p., 30 min before ivPTZ

Question: Which results are given for CC(C(=O)N1CCN(c2cccc(C(F)(F)F)c2)CC1)N1C(=O)CC(N(C)C)C1=O.Cl (stereo not shown) [KA-232, 3-(Dimethylamino)-1-(1-oxo-1-(4-(3-(trifluoromethyl)phenyl)piperazin-1-yl)propan-2-yl)pyrrolidine-2,5-dione hydrochloride]?
Answer: ED50 ([1]; Mus musculus, scPTZ 100 mg/kg, 30 min before test, read-out: ED50 PTZ ± SD): 59.3 ± 78.2 mg/kg; TI (TD50/ED50), PTZ ([1]; scPTZ): 2.75; effect on threshold for forelimb tonus [2, 7]: did not significantly affect; effect on threshold for generalized clonus [2, 7]: did not significantly affect; effect on threshold for the first myoclonic twitch [2, 7]: did not significantly affect; mice in which hindlimb tonus did not occur ([2]; 50 mg/kg i.p., p < 0.01 vs. control): 5 out of 9; effect on threshold for clonic seizures ([2]; 100 mg/kg i.p., p < 0.0001): slightly raised; effect on threshold for myoclonic seizures ([2]; 100 mg/kg i.p., p < 0.001): slightly raised; mice in which forelimb tonus was completely abolished ([2]; 100 mg/kg i.p., p < 0.01 vs. control): 7 out of 11; % Inhibition of Control Specific Binding ([3]; 10 µM): −6.3%; % Inhibition of Control Specific Binding ([3]; 100 µM): 18.5%; % Inhibition of Control Specific Binding ([4]; 10 µM): −1.8%; % Inhibition of Control Specific Binding ([4]; 100 µM): 17.5%; % Inhibition of Control Specific Binding [5]: −2.8 (10) %; % Inhibition of Control Specific Binding ([6]; 10 µM): did not interact; inhibition at 10 µM ([6]; read-out: % Inhibition of Control Specific Binding): 10.6%; SH-SY5Y viability (% of control ± SD) (neuroblastoma SH-SY5Y; 10 µM): 99.44 ± 5.89 % of control; neurotoxic effect on SH-SY5Y cell line (neuroblastoma SH-SY5Y; all used doses): no neurotoxic effect; Papp at 5 h (in vitro): 10.2 ± 1.65 ×10⁻⁶ cm/s
